Test results as given in paper PMC3894558, “Chemical signatures and new drug targets for gametocytocidal drug development” (Scientific Reports, 2014).
Read-outs that look alike come from different tables or passages of the source.

System: P. falciparum 3D7 gametocytes
Assay: alamarBlue gametocyte viability assay, strain 3D7
Format: cell-based, Plasmodium falciparum
Conditions: for Max Resp: DMSO set at 0%, 100 nM epoxomicin set at -100%; call rule not given here
[1] = Malaria Box, stages III-V 3D7 gametocytes
[2] = Malaria Box, stages III-V 3D7 gametocytes, 11 concentrations, 1:3 dilution, read-out: IC50
[3] = Malaria Box, stages III-V 3D7 gametocytes, 11 concentrations, 1:3 dilution

Compound | IC50 [2] | IC50 [3] | Max Resp (Malaria Box) | Curve Class [1] | reduction of gametocyte viability (Malaria Box screen) | IC50 (P. falciparum 3D7 gametocytes, mean of at least 3 independent experiments, read-out: Gametocyte IC50)
CCc1ccc(Nc2cc(C)c3ccc(O)cc3n2)cc1.Cl [MMV000570] | 0.469 µM |  | -29% | -1.2 |  | 
Cc1ccc(Nc2nc(-c3ccccn3)cs2)cc1 [MMV007907] | 7.43 µM |  | -73% | -2.2 |  | 
Cc1cc(C)cc(Nc2cc(C)nc3nc(C(F)(F)F)nn23)c1 [MMV011259] |  | Inactive | 4% | 4 |  | 
CN1CCN(c2ccc(Nc3c4ccccc4nc4ccccc34)cc2)CC1 [MMV006172] | 1.48 µM |  | -98% | -1.1 |  | 
COc1cccc(-c2nn(C)c3sc(C(=O)NCCN4CCN(c5ccccc5F)CC4)cc23)c1 [MMV019064] |  | Inactive | -42% | -2.2 |  | 
COc1ccc(Nc2nc(NCc3ccccc3)c3ccccc3n2)cc1 [MMV000963] | 9.35 µM |  | -86% | -2.1 |  | 
COc1ccc(NC(=O)C2c3ccccc3C(=O)N(CC(C)C)C2c2cccs2)cc1Cl (centres unmarked) [MMV000642] | 9.35 µM |  | -75% | -2.2 |  | 
Cc1c(C)n(Cc2ccc(F)cc2)c2ccc(C(=O)NCc3ccco3)cc12 [MMV008149] |  | Inactive | 17% | 4 |  | 
CCCCN(CCCC)S(=O)(=O)c1ccc(NC(=O)c2ccco2)cc1 [MMV007881] |  | Inactive | 15% | 4 |  | 
CCN(CC)c1cc(C)c2cc(NC(=O)c3cccc(OC)c3)ccc2n1 [MMV000498] |  | Inactive | -20% | 4 |  | 
CCOc1ccc2c(c1)CN(Cc1ccc(Cl)cc1)CO2 [MMV000443] | 1.32 µM |  | -54% | -1.2 |  | 
CCOC(=O)c1c[nH]c2ccc(CC)cc2c1=O [MMV007116] |  | Inactive | 32% | 4 |  | 
CCC1(C)CC(CCNCc2ccccc2O)(c2ccc(C)cc2)CCO1 (centres unmarked) [MMV019406] | 0.418 µM |  | -82% | -1.1 | > 75% | < 1 µM
CCOc1ccccc1CNC(=O)C1c2ccccc2C(=O)N(CC(C)C)C1c1cccs1 (centres unmarked) [MMV000653] |  | Inactive | -49% | -2.2 |  | 
Cc1ccc2c(C)nc(Nc3nc(C)cc(-c4ccccc4)n3)nc2c1 [MMV007041] |  | Inactive | -50% | -2.2 |  | 
CCCn1c(=N)c(C(=O)NC2CCCCC2)cc2c(=O)n3cccc(C)c3nc21 [MMV008829] |  | Inactive | -26% | 4 |  | 
CCCCc1c(C)nc2c(OC)cccc2c1O [MMV006820] |  | Inactive | 24% | 4 |  | 
COc1ccc(C2NCCc3c2[nH]c2ccccc32)cc1CN1CCN(c2ccc(F)cc2)CC1.Cl (centres unmarked) [MMV019690] | 6.62 µM |  | -89% | -1.1 |  | 
COc1ccc(NC(=O)C2c3ccccc3C(=O)N(CC(C)C)C2c2cccs2)cc1 (centres unmarked) [MMV000662] | 4.18 µM |  | -81% | -1.1 |  | 
CCCCC(O)(c1ccc(Cl)cc1)C(CN1CCOCC1)c1ccc(Cl)cc1.Cl (centres unmarked) [MMV000619] |  | Inactive | -51% | -2.2 |  | 
CCOc1cc2c(cc1OCC)C(c1cc(Cl)ccc1O)NCC2 (centres unmarked) [MMV000478] | 4.18 µM |  | -76% | -1.2 |  | 
c1ccc(CNc2nc(Nc3ccccc3)nc3ccccc23)cc1 [MMV006169] | 11.8 µM |  | -80% | -2.2 |  | 
COc1ccccc1N1C(=N)SC(=Cc2ccc(OCc3ccccc3F)cc2)C1=O [MMV007199] |  | Inactive | -2% | 4 |  | 
COCCNCC(O)Cn1c2ccc(Cl)cc2c2cc(Cl)ccc21 (centres unmarked) [MMV019017] | 2.64 µM |  | -94% | -1.1 |  | 
O=C(NCCCN1CCC(N2CCCCC2)CC1)C1=Cc2cc(Br)ccc2OC1 [MMV019995] | 5.26 µM |  | -99% | -1.1 |  | 
C[n+]1c2ccccc2nc2ccc(NCCO)cc21 [MMV396693] | 2.96 µM |  | -85% | -1.1 |  | 

Second part, led by results:

IC50 [2] | IC50 [3] | Compound | Max Resp (Malaria Box) | Curve Class [1] | reduction of gametocyte viability (Malaria Box screen) | IC50 (P. falciparum 3D7 gametocytes, mean of at least 3 independent experiments, read-out: Gametocyte IC50)
 | Inactive | CC(C)(C)C(=O)Nc1ccc(C(=O)Nc2cccc(-c3nc4ccccc4[nH]3)c2)cc1 [MMV665879] | -23% | 4 |  | 
 | Inactive | Cc1ccc(-c2cc3c(SCC(=O)Nc4cc(C(F)(F)F)ccc4Cl)nccn3n2)cc1 [MMV396680] | -21% | 4 |  | 
 | Inactive | FC(F)(F)c1cccc(Nc2nc(-c3ccccc3)nc3ncccc23)c1 [MMV665798] | -7% | 4 |  | 
 | Inactive | O=C(c1ccccc1F)N(Cc1ccc(Cl)cc1)c1ccccn1 [MMV665899] | -26% | 4 |  | 
29.6 µM |  | Cc1ccc(CN2CCC(C(=O)Nc3ccc(-c4cc5ccccc5[nH]4)cc3)CC2)o1 [MMV666071] | -71% | -2.2 |  | 
23.5 µM |  | COc1cccc(C2(C)Nc3ccccc3-c3nc4ccccc4n32)c1 (centres unmarked) [MMV396719] | -71% | -2.2 |  | 
29.6 µM |  | CN(C)c1ccc(-c2nc3ccc(N)cc3[nH]2)cc1 [MMV666102] | -75% | -2.2 |  | 
 | Inactive | Cc1nc2ccccc2c(O)c1CC=C(Cl)Cl [MMV665994] | 5% | 4 |  | 
3.72 µM |  | CCN(CC)CCNc1ncnc2c1[nH]c1ccc(Cl)cc12 [MMV396703] | -81% | -1.1 |  | 
4.18 µM |  | COc1ccc(C2c3ccc4ccccc4c3Oc3ncn(CCCn4ccnc4)c(=N)c32)cc1OC (centres unmarked) [MMV667490] | -79% | -1.1 |  | 
 | Inactive | COc1ccc(C2N(C)c3ccccc3N2C)cc1 [MMV666075] | -34% | -2.4 |  | 
 | Inactive | CCOc1ccc(N2C(N)=NC(N)=NC2(C)C)cc1.Cl [MMV667486] | -4% | 4 |  | 
 | Inactive | CCCC(c1nnnn1C1CCCCC1)N1CCN(C(=O)c2ccco2)CC1.Cl (centres unmarked) [MMV666093] | -10% | 4 |  | 
 | Inactive | O=C(Nc1ccc(CN2CCOCC2)cc1)c1ccc(-c2ccc(Br)cc2)o1 [MMV665901] | -41% | -2.4 |  | 
5.26 µM |  | CCc1ccc(CNCC(O)c2ccccc2)cc1.Cl (centres unmarked) [MMV665812] | -74% | -1.2 |  | 
14.8 µM |  | O=c1cc(NC2CCN(CCCc3ccccc3)CC2)c2cc(Cl)ccc2o1 [MMV665786] | -89% | -2.1 |  | 

IC50 [2] | IC50 [3] | Compound | Max Resp (Malaria Box) | Curve Class [1] | reduction of gametocyte viability (Malaria Box screen) | IC50 (P. falciparum 3D7 gametocytes, mean of at least 3 independent experiments, read-out: Gametocyte IC50)
14.8 µM |  | FC(F)(F)c1cccc(CNC2CCN(CCc3ccccc3)CC2)c1 [MMV665979] | -89% | -2.1 |  | 
0.372 µM |  | Cl.Cn1c(=O)n(C)c2cc(CNCCNc3ccnc4cc(Cl)ccc34)ccc21 [MMV665875] | -41% | -1.2 |  | 
 | Inactive | O=C(Nc1ccc(Cl)cc1)N1CCN(c2ccc3nncn3n2)CC1 [MMV665917] | -1% | 4 |  | 
18.7 µM |  | COc1ccc2c(c1)C1(Nc3ccccc3-c3nc4ccccc4n31)C(=O)N2 (centres unmarked) [MMV396749] | -61% | -2.2 |  | 
 | Inactive | Cc1cc(Nc2ccc(C)c(Cl)c2)n2nc(C(F)(F)F)nc2n1 [MMV665874] | -2% | 4 |  | 
5.9 µM |  | O=C(Nc1ccccc1O)c1ccc(-c2ccc(Cl)cc2Cl)o1 [MMV665948] | -52% | -1.4 |  | 
16.6 µM |  | COc1ccc(C(=O)NC(c2ccc(Cl)cc2Cl)c2cc(Cl)c3cccnc3c2O)cc1 (centres unmarked) [MMV666054] | -125% | -2.1 |  | 
 | Inactive | COc1ccc(C=C2SC(Nc3ccc(F)cc3)=NC2=O)c(OC)c1 [MMV084434] | -24% | 4 |  | 
2.09 µM |  | CCCCCCc1cc2cc(-c3nc4ccccc4[nH]3)c(=Nc3ccccc3C)oc2cc1O [MMV666597] | -27% | -1.4 |  | 
 | Inactive | CCOc1ccc(C2N(C)c3ccccc3N2C)cc1 [MMV075490] | -38% | -2.2 |  | 
6.62 µM |  | COc1ccc(Nc2nc(N/N=C/c3ccc(O)cc3)nc(Nc3ccc([N+](=O)[O-])cc3)n2)cc1 [MMV666689] | -64% | -1.2 |  | 
 | Inactive | CCOC(=O)c1c[nH]c2c(CC)cccc2c1=O [MMV498479] | 28% | 4 |  | 
23.5 µM |  | Cc1ccc(-c2nc3ccccc3o2)cc1NCc1cc(Cc2ccccc2)ccc1O [MMV020912] | -63% | -2.2 |  | 
16.6 µM |  | Cc1sc(NC(=O)c2ccco2)c(C(c2cccnc2)N2CCC(Cc3ccccc3)CC2)c1C (centres unmarked) [MMV396663] | -85% | -2.1 |  | 
29.6 µM |  | Nc1ccc(-c2nc3cc(Cc4ccc5[nH]c(-c6ccc(N)cc6)nc5c4)ccc3[nH]2)cc1 [MMV665943] | -69% | -2.2 |  | 
 | Inactive | CC(=O)c1ccc(NC(=O)CSc2nc(-c3ccccc3Cl)ns2)cc1 [MMV666124] | -33% | -3 |  | 
